From patent US7851510B2, “Gossypol derivatives, production method thereof and uses of same” (Centre National de la Recherche Scientifique (C.N.R.S.), priority 2004, dated 2010)
Where two headings read alike, the source gives them in different places.

Assays:
AMPK = experiment: Protein kinase activity in the presence of compound; assay type: biochemical; conditions: 10 μM compound; percentage of the activity measured in the absence of inhibitors
Experimental: (§1) The action of the compound of formula (14) was tested on a selection of 29 different protein kinases. The activity of these enzymes was measured in the presence of 10 μM of compound, according to the general methodology described by Bain et al. (2003) Biochem. J. 371:199-204 and Davies et al. (2000) Biochem. J. 351:95-105.
(§2) Residual enzyme activity of protein kinases in the presence of inhibitor compounds at the concentration given (expressed as a percentage of the activity measured in the absence of inhibitors). The results obtained for gossypol and gossypolone are given by way of comparison.

CSK = CSK (Homo sapiens, UniProt P41240); experiment: as above; assay type: biochemical; conditions: read-out: Residual activity CSK
Sequence of CSK (P41240 whole entry, species assumed): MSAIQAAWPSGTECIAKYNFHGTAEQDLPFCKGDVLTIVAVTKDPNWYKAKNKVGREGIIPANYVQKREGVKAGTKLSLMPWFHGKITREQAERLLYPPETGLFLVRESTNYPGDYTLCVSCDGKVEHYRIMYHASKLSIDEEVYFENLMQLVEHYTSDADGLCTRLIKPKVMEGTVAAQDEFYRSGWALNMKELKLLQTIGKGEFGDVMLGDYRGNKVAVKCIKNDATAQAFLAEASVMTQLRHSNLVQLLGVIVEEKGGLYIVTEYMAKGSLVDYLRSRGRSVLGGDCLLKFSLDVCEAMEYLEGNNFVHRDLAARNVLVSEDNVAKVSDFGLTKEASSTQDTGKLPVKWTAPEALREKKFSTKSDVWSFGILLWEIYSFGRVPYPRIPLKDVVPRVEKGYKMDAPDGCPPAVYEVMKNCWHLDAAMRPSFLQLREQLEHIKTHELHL
Experimental: as §1, §2

JNK/SAPK1c = JNK/SAPK1c (Homo sapiens, UniProt P45983); experiment: as above; assay type: biochemical; conditions: read-out: Residual activity JNK/SAPK1c
Sequence of JNK/SAPK1c (P45983 whole entry): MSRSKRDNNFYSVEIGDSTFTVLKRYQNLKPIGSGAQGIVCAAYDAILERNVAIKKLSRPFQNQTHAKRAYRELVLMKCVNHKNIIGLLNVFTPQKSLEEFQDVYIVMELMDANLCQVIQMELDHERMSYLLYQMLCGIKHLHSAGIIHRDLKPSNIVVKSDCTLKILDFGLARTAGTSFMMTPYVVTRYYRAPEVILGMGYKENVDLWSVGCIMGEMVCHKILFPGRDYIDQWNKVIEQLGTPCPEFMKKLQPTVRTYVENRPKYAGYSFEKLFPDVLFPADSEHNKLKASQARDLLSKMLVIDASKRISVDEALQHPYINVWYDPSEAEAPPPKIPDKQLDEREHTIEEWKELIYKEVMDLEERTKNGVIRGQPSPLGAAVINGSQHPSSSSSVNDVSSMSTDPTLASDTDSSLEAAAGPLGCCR
Experimental: as §1, §2

Lck = Lck (Homo sapiens, UniProt P06239); experiment: as above; assay type: biochemical; conditions: read-out: Residual activity Lck
Sequence of Lck (P06239 whole entry, species assumed): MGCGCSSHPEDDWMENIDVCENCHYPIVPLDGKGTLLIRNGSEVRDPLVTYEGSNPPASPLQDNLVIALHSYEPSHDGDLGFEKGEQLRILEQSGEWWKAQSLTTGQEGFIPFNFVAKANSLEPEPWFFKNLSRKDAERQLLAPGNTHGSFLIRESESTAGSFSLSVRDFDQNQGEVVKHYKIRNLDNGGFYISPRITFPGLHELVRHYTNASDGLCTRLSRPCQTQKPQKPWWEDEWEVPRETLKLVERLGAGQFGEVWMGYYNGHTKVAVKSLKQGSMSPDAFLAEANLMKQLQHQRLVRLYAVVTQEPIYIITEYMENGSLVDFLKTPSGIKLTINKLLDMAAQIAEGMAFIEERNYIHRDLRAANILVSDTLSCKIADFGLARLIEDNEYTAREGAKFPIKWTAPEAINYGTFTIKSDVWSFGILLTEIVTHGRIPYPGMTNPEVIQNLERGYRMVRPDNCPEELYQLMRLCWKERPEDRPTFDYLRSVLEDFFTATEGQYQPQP
Experimental: as §1, §2

MAPKAP-K2 = MAPKAP-K2 (Homo sapiens, UniProt P49137); experiment: as above; assay type: biochemical; conditions: read-out: Residual activity MAPKAP-K2
Sequence of MAPKAP-K2 (P49137 whole entry, species assumed): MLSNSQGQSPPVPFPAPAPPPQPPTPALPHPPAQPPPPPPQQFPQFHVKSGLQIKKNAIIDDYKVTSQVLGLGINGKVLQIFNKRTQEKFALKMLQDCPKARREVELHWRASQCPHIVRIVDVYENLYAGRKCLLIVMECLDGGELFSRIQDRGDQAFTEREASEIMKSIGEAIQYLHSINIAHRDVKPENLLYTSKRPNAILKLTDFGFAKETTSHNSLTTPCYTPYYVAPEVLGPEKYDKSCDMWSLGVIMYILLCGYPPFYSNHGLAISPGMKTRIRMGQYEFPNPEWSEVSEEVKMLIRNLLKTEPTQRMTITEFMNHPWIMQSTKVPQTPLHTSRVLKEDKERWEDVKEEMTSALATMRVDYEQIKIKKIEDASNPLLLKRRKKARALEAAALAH
Experimental: as §1, §2

MKK1 = MKK1 (Homo sapiens, UniProt Q02750); experiment: as above; assay type: biochemical; conditions: read-out: Residual activity MKK1
Sequence of MKK1 (Q02750 whole entry, species assumed): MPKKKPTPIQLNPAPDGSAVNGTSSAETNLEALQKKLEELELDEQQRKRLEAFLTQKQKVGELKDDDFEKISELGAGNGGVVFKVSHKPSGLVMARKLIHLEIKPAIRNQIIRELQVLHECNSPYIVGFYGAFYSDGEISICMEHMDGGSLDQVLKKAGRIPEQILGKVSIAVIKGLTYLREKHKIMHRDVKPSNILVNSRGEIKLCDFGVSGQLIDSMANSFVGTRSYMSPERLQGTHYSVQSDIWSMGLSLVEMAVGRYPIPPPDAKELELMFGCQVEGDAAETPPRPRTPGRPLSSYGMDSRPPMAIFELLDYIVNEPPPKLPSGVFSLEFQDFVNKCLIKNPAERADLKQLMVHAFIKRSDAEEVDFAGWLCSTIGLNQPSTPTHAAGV
Experimental: as §1, §2

MSK1 = MSK1 (Homo sapiens, UniProt O75582); experiment: as above; assay type: biochemical; conditions: read-out: Residual activity MSK1
Experimental: as §1, §2

PDK1 = molecular target: T1, PDK1 (Homo sapiens, UniProt O15530); experiment: as above; assay type: biochemical; conditions: read-out: Residual activity PDK1
T1 sequence (O15530 1-556): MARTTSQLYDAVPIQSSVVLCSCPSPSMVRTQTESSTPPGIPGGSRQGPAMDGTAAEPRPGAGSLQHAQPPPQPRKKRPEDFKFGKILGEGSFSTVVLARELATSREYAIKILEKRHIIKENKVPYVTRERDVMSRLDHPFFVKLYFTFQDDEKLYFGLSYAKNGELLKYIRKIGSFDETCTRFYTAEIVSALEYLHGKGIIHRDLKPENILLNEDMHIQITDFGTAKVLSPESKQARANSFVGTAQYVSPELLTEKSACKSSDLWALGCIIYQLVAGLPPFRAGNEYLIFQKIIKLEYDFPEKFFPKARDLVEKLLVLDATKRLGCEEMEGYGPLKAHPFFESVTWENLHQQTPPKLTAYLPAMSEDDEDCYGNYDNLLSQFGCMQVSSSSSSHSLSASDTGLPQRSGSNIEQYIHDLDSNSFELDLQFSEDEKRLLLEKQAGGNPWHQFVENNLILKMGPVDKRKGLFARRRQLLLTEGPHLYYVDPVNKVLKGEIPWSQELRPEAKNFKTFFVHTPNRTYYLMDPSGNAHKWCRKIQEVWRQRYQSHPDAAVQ
Experimental: as §1, §2

PKB?ph = experiment: as above; assay type: biochemical; conditions: 10 μM compound; percentage of the activity measured in the absence of inhibitors
Experimental: as §1, §2

PRAK = molecular target: T2, PRAK (Homo sapiens, UniProt Q8IW41); experiment: as above; assay type: biochemical; conditions: for remaining activity at 10 µM: read-out: Residual activity PRAK
T2 sequence (Q8IW41 1-473): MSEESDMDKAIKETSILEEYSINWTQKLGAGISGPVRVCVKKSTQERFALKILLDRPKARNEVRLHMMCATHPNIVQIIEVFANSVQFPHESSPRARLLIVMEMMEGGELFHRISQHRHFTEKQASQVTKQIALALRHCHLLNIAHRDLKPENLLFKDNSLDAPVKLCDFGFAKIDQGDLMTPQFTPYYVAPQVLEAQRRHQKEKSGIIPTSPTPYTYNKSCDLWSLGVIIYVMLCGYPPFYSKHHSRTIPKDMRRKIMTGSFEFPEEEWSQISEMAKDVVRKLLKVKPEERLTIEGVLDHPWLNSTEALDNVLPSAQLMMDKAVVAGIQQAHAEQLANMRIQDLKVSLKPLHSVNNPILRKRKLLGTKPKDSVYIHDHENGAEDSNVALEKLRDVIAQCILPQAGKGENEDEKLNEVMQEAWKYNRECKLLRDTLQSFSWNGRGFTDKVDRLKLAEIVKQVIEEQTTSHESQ
Experimental: as §1, §2

ROCK-II = ROCK-II (Homo sapiens, UniProt O75116); experiment: as above; assay type: biochemical; conditions: read-out: Residual activity ROCK-II
Sequence of ROCK-II (O75116 whole entry, species assumed): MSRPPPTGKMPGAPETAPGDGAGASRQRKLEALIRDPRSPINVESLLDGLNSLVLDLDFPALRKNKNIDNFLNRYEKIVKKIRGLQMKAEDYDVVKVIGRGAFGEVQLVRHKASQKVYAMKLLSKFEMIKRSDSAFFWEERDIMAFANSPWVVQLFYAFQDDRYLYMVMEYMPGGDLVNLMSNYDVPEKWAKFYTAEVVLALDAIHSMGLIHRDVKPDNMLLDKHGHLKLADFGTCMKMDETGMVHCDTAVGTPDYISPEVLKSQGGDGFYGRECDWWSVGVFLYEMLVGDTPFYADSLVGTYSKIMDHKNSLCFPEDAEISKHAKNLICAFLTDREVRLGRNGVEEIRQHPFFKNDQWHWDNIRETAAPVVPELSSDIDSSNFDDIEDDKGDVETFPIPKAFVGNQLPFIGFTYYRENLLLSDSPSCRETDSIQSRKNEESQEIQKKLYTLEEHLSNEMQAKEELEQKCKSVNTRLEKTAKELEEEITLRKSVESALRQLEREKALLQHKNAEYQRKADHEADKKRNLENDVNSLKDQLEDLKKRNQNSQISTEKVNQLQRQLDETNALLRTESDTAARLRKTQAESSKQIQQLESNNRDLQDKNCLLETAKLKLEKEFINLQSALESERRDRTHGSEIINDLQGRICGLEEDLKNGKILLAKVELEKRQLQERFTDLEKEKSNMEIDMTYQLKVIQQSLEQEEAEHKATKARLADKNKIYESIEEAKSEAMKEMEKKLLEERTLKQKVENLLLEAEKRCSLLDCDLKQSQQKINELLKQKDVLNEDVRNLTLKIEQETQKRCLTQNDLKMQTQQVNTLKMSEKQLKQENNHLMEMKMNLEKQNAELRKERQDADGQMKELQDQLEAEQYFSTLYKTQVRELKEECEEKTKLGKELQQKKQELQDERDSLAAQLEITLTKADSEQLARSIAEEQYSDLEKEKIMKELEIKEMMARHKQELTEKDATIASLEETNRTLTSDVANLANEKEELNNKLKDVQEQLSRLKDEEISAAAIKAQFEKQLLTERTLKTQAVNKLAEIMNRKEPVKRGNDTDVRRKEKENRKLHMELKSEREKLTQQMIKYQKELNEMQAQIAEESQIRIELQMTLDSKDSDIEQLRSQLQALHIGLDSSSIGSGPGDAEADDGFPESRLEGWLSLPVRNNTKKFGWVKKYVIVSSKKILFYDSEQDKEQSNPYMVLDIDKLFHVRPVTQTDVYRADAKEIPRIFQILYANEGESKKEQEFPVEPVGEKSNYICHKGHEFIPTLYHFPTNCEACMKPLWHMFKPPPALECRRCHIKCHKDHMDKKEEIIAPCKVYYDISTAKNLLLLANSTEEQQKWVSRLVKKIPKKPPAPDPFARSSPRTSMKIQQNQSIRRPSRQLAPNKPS
Experimental: as §1, §2

SAPK2a/p38 = SAPK2a/p38 (Homo sapiens, UniProt Q16539); experiment: as above; assay type: biochemical; conditions: read-out: Residual activity SAPK2a/p38
Sequence of SAPK2a/p38 (Q16539 whole entry): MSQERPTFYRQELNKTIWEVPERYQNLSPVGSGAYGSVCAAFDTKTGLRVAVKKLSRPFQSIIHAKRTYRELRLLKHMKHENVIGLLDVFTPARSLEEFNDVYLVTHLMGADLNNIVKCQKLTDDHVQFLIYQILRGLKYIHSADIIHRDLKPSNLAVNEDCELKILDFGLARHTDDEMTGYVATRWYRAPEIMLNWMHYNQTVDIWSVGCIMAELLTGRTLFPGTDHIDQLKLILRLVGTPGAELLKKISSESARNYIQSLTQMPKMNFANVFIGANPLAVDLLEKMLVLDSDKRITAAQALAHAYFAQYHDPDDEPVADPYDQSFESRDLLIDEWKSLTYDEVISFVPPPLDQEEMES
Experimental: as §1, §2

SAPK2b/p38β2 = SAPK2b/p38β2 (Homo sapiens, UniProt Q15759); experiment: as above; assay type: biochemical; conditions: read-out: Residual activity SAPK2b/p38β2
Sequence of SAPK2b/p38β2 (Q15759 whole entry): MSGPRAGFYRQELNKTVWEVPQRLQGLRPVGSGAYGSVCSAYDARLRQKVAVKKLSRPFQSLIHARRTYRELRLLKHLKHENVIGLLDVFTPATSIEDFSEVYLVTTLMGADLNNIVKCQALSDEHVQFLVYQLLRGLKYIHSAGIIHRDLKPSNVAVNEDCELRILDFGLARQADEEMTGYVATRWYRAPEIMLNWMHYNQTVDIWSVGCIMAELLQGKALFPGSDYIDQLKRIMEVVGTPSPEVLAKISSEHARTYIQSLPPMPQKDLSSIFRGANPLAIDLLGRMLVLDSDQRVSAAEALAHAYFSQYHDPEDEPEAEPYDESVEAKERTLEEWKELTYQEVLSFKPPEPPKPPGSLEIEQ
Experimental: as §1, §2

KB tumour cell line = experiment: Cytotoxicity vis-à-vis the KB tumour cell line; assay type: cell-based; conditions: Homo sapiens
Experimental: The cytotoxicity of the compound vis-à-vis the KB tumour cell line was measured as is described in Dao et al. (2003) Bioorg. Med. Chem. 11:2001-2006.

[1] = 10 μM compound, percentage of the activity measured in the absence of inhibitors

Compound	Residual activity AMPK (AMPK) [%]	remaining activity at 10 µM (CSK) [%]	remaining activity at 10 µM (JNK/SAPK1c) [%]	remaining activity at 10 µM (Lck) [%]	remaining activity at 10 µM (MAPKAP-K2) [%]	remaining activity at 10 µM (MKK1) [%]	remaining activity at 10 µM (MSK1) [%]	remaining activity at 10 µM (PDK1) [%]	Residual activity PKB?ph (PKB?ph) [%]	remaining activity at 10 µM (PRAK) [%]	remaining activity at 10 µM (ROCK-II) [%]	remaining activity at 10 µM (SAPK2a/p38) [%]	remaining activity at 10 µM (SAPK2b/p38β2) [%]	Reduction of the activity of PRAK (PRAK; 10 μM compound) [%]	further results
Cc1cc2c(C(C)C)c(O)c(O)c(C=O)c2c(O)c1-c1c(C)cc2c(C(C)C)c(O)c(O)c(C=O)c2c1O [Gossypol, gossypol]	72	103	90	76	56	86	79	71	94	48	80	99	125		
CC1=C(C2=C(C)C(=O)c3c(c(CSCCO)c(O)c(O)c3C(C)C)C2=O)C(=O)c2c(CSCCO)c(O)c(O)c(C(C)C)c2C1=O [Compound (14), 6,7,6′,7′-tetrahydroxy-8,8′-bis-(2-hydroxy-ethylsulphanylmethyl)-5,5′-diisopropyl-3,3′-dimethyl-[2,2′]binaphthalenyl-1,4,1′,4′-tetraone]	70								76					91	remaining activity at 10 µM (CSK; [1]): 60%; remaining activity at 10 µM (JNK/SAPK1c; [1]): 88%; remaining activity at 10 µM (Lck; [1]): 54%; remaining activity at 10 µM (MAPKAP-K2; [1]): 36%; remaining activity at 10 µM (MKK1; [1]): 90%; remaining activity at 10 µM (MSK1; [1]): 83%; remaining activity at 10 µM (PDK1; [1]): 65%; remaining activity at 10 µM (PRAK; [1]): 9%; remaining activity at 10 µM (ROCK-II; [1]): 73%; remaining activity at 10 µM (SAPK2a/p38; [1]): 102%; remaining activity at 10 µM (SAPK2b/p38β2; [1]): 113%
CC1=C(C2=C(C)C(=O)c3c(c(O)c(O)c(O)c3C(C)C)C2=O)C(=O)c2c(O)c(O)c(O)c(C(C)C)c2C1=O [Compound (4), 6,7,8,6′,7′,8′-hexahydroxy-5,5′-diisopropyl-3,3′-dimethyl-[2.2′]binaphthalenyl-1,4,1′,4′-tetraone]	61	93	105	71	28	59	69	88	39	9	75	105	124	91	IC50 (KB tumour cell line): 1000 nM
CC1=C(C2=C(C)C(=O)c3c(c(C=O)c(O)c(O)c3C(C)C)C2=O)C(=O)c2c(C=O)c(O)c(O)c(C(C)C)c2C1=O [Gossypolone, gossypolone, reference compound]	66	64	86	60	28	76	85	51	53	9	54	108	102		
